Tests used:
[1] = test system: MEK1 phosphorylation at S298; experiment: Cellular PAK IC50 assay: MEK1 (S298) phosphorylation by HTRF in EBC1 cells; assay type: cell-based; conditions: Homo sapiens, EBC-1, 2 h treatment, media containing 0.1% FBS
Experimental: Cellular PAK IC50 Assay Protocol
Group I PAKs (PAK1-3) are activated upon binding to the Rho GTPases, Rac 1 and Cdc42. Activated group I PAKs phosphorylate MEK1 at Serine 298 (S298), one of the two sites in the catalytic domain that is important for stable association between Raf and MEK1 and subsequent MAPK activation. The inhibition of group I PAKs in EBC1 cells is assessed by detecting changes in the level of MEK1 phosphorylation at S298 using homogenous time-resolved fluorescence (HTRF). Inhibitory activity was estimated by treating 2×10^4 EBC1 cells for 2 h with PAK inhibitors in media containing 0.1% FBS. Following inhibitor treatment, cells were lysed with 25 μL of 1× cellular kinase lysis buffer (Cisbio) containing 1× cellular kinase blocking reagent (Cisbio). Cellular lysis was carried out at 4° C. for 2 h with constant shaking before lysate (16 μL) was transferred to white 384-well ProxiPlates™ (Perkin Elmer). Anti-total MEK1 antibody labeled with Europium cryptate donor (1 ng/well) (Cell Signaling Technologies catalog number 2352) and anti-phospho MEK1 (S298) antibody labeled with d2 acceptor (Cell Signaling Technologies catalog number 9128) (10 ng/well) were prepared in 1× detection buffer (CisBio) and added to each well of the assay plate and allowed to incubate at RT overnight. The following day the fluorescence emission from each well was measured in EnVision® (Perkin Elmer) at an excitation of 330 nm and dual emission wavelengths of 615 nm and 665 nm. The signal in each well at 665 nm was multiplied by 10,000 and divided by the signal in the same well at 615 nm to obtain a ratio. Ratio values ([665*10,000]÷615) were plotted as a function of the concentration of compound to determine IC50 values.

[2] = target: T1, human recombinant GST-PAK1-KD protein (Homo sapiens, UniProt Q13153); experiment: GST-PAK1-KD (Kinase Domain) IC50 biochemical assay (microfluidic mobility shift); conditions: GST-PAK1-KD inhibition assay
T1 construct: residues #249-545 of human PAK1, UniProtKP/Swiss Q13153; made in house; host or cells: Sf9 insect cells (pAcGP67 baculovirus expression vector)
Experimental: GST-PAK1-KD (Kinase Domain) IC50 Biochemical Assay Protocol
Activity of human recombinant GST-PAK1-KD protein was assessed in vitro assay by observing the phosphorylation of a fluorogenic peptide substrate.
The peptide substrate is a consensus sequence based on various PAK1 substrates reported in the scientific literature. […] Incubations were carried out at 22° C. in MatriCal MP101 384-well Metriplates™. […] Following the 30-minute incubation, the assay mixtures were quenched by the addition of 3 μL of 250 mM EDTA, and the substrate and phosphorylated product were separated by capillary electrophoresis and detected using LabChip® Caliper 3000 (Caliper Life Sciences).

T1 sequence (Q13153 249-545): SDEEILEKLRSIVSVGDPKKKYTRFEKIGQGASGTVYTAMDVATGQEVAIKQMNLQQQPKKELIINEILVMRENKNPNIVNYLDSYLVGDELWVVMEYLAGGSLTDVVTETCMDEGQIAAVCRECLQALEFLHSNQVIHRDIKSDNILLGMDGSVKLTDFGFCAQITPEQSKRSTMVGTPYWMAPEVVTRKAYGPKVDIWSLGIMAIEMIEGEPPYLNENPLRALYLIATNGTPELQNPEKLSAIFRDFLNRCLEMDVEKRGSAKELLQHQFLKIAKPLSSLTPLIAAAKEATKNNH

Q: With `C[C@H](Nc1nccc(Nc2cc(C3CC3)[nH]n2)n1)c1nccc2[nH]ccc12` [Compound I-4, N^2-((S)-1-(1H-pyrrolo[3,2-c]pyridin-4-yl)ethyl)-N^4-(5-cyclopropyl-1H-pyrazol-3-yl)pyrimidine-2,4-diamine] as the molecule, how does the IC50 [1] read?
A: Its IC50 is 325 nM.

Q: And the Ki [2]?
A: The Ki was 60 nM.

Q: For `c1cc(Nc2cc(C3CC3)[nH]n2)nc(NCc2cnc3[nH]ccc3c2)n1` [Compound I-6, N^2-((1H-Pyrrolo[2,3-b]pyridin-5-yl)methyl)-N^4-(5-cyclopropyl-1H-pyrazol-3-yl)pyrimidine-2,4-diamine], which IC50 [1] is on record?
A: Its IC50 is 709 nM.

Q: And the Ki [2]?
A: The Ki was 72 nM.

Q: Which results are given for `C[C@H](Nc1nccc(Nc2cc(C3CC3)[nH]n2)n1)c1cc2cc[nH]c2cn1` [Compound I-7, (S)—N^2-(1-(1H-pyrrolo[2,3-c]pyridin-5-yl)ethyl)-N^4-(5-cyclopropyl-1H-pyrazol-3-yl)pyrimidine-2,4-diamine]?
A: IC50 [1]: 68.4 nM; Ki [2]: 5 nM

Q: With `CN(Cc1ccc2[nH]ccc2n1)c1nccc(Nc2cc(C3CC3)[nH]n2)n1` [Compound I-10, N^2-((1H-pyrrolo[3,2-b]pyridin-5-yl)methyl)-N^4-(5-cyclopropyl-1H-pyrazol-3-yl)-N^2-methylpyrimidine-2,4-diamine] as the molecule, how does the IC50 [1] read?
A: The IC50 was 1100 nM.

Q: What about the Ki [2] of the same molecule?
A: Its Ki is 67 nM.

Q: For `C[C@H](Nc1nccc(Nc2cc(C3CC3)[nH]n2)n1)c1ccc2[nH]ccc2n1` [Compound I-12, (S)—N^2-(1-(1H-pyrrolo[3,2-b]pyridin-5-yl)ethyl)-N^4-(5-cyclopropyl-1H-pyrazol-3-yl)pyrimidine-2,4-diamine], which IC50 [1] is on record?
A: The IC50 was 45.5 nM.

Q: And the Ki [2]?
A: The Ki was 16 nM.

Q: How did the IC50 [1] turn out when `C[C@H](Nc1nccc(Nc2cc(C3CC(F)(F)C3)[nH]n2)n1)c1ccc2[nH]ccc2n1` [Compound I-16, (S)—N^2-(1-(1H-pyrrolo[3,2-b]pyridin-5-yl)ethyl)-N^4-(5-(3,3-difluorocyclobutyl)-1H-pyrazol-3-yl)pyrimidine-2,4-diamine] was run?
A: Its IC50 is 72.6 nM.

Q: What about the Ki [2] of the same molecule?
A: Its Ki is 22 nM.

Q: Which results are given for `C[C@@H](c1ccc2[nH]ccc2n1)N(C)c1nccc(Nc2cc(C3CC3)[nH]n2)n1` [Compound I-18, (S)—N^2-(1-(1H-pyrrolo[3,2-b]pyridin-5-yl)ethyl)-N^4-(5-cyclopropyl-1H-pyrazol-3-yl)-N^2-methylpyrimidine-2,4-diamine]?
A: IC50 [1]: 221 nM; Ki [2]: 24 nM

Q: With `C[C@@H](c1ccc2[nH]ccc2n1)N(C)c1nccc(Nc2cc([C@@H]3C[C@@H]3F)[nH]n2)n1` [Compound I-24, N^2-((S)-1-(1H-pyrrolo[3,2-b]pyridin-5-yl)ethyl)-N^4-(5-((1S,2S)-2-fluorocyclopropyl)-1H-pyrazol-3-yl)-N^2-methylpyrimidine-2,4-diamine] as the molecule, how does the IC50 [1] read?
A: Its IC50 is 191 nM.

Q: And the Ki [2]?
A: Its Ki is 52 nM.

Q: With `C[C@@H](c1ccc2[nH]ccc2n1)N(C)c1nccc(Nc2cc([C@H]3C[C@@H]3F)[nH]n2)n1` [Compound I-28, N^2—((S)-1-(1H-pyrrolo[3,2-b]pyridin-5-yl)ethyl)-N^4-(5-((1R,2S)-2-fluorocyclopropyl)-1H-pyrazol-3-yl)-N^2-methylpyrimidine-2,4-diamine] as the molecule, how does the IC50 [1] read?
A: The IC50 was 53.1 nM.

Q: What about the Ki [2] of the same molecule?
A: Its Ki is 8 nM.

Q: How did the Ki [2] turn out when `c1cc(Nc2cc(C3CC3)[nH]n2)nc(NCc2cncc3[nH]cnc23)n1` [Compound I-33, N^2-((3H-imidazo[4,5-c]pyridin-7-yl)methyl)-N^4-(5-cyclopropyl-1H-pyrazol-3-yl)pyrimidine-2,4-diamine] was run?
A: Its Ki is 494 nM.

Q: Which Ki [2] does the source give for `C[C@H](Nc1nccc(Nc2cc(C3CC3)[nH]n2)n1)c1ncc2[nH]ccc2n1` [Compound I-35, (S)—N^2-(1-(5H-pyrrolo[3,2-d]pyrimidin-2-yl)ethyl)-N^4-(5-cyclopropyl-1H-pyrazol-3-yl)pyrimidine-2,4-diamine] here?
A: Its Ki is 3 nM.
